# According to PMC3914206:
# Columns and labels:
# [1] = molecular target: T1, panel of 442 kinases (Homo sapiens, UniProt P42679); type: binding; settings: Compound Concentration 10 µM
# T1 construct: purchased KINOMEscan
# T1 sequence (P42679 1-507): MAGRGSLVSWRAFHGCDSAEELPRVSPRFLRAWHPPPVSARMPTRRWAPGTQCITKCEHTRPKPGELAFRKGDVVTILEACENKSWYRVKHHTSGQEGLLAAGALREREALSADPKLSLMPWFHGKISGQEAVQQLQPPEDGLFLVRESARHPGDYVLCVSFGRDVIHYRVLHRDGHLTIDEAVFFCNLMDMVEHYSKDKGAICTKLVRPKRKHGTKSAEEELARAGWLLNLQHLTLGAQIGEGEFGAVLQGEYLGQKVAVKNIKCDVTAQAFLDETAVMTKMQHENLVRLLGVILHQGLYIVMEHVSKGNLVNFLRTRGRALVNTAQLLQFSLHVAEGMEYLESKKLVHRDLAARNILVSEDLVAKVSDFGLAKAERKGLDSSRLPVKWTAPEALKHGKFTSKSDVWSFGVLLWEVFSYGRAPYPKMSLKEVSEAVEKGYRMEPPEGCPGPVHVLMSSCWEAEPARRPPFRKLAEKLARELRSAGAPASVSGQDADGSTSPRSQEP
# Text: (§1) We assessed the selectivity of members of this scaffold using the KINOMEscan methodology across a near comprehensive panel of 442 kinases [[18,27]].
# [2] = molecular target: T2, panel of 442 kinases (Homo sapiens, UniProt Q99759); type: binding; settings: Compound Concentration 10 µM
# T2 construct: purchased KINOMEscan
# T2 sequence (Q99759 1-626): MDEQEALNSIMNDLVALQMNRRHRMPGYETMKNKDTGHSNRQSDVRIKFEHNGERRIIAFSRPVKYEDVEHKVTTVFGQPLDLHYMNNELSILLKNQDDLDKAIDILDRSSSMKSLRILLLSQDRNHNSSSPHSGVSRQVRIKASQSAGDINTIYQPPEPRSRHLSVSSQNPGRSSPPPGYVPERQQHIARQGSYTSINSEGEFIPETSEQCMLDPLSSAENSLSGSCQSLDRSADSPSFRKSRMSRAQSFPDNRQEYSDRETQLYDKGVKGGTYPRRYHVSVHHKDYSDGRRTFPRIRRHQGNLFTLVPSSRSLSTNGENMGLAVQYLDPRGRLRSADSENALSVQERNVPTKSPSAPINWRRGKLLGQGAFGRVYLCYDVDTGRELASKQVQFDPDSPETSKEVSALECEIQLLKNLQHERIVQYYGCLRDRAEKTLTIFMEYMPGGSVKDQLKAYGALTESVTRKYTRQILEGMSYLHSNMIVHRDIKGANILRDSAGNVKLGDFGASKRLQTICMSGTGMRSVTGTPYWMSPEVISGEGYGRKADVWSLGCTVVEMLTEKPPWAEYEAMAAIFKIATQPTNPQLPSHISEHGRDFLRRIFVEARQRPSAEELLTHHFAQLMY
# Text: as §1
compound,measurement,setting,value
"COc1cc(C(=O)N2CCC(N3CCN(C)CC3)CC2)ccc1Nc1ncc2c(n1)N(C1CCCC1)c1ccccc1C(=O)N2C [Compound 25, 11-cyclopentyl-2-((2-methoxy-4-(4-(4-methylpiperazin-1-yl)piperidine-1-carbonyl)phenyl)amino)-5-methyl-5H-benzo[e]pyrimido[5,4-b][1,4]diazepin-6(11H)-one]",KINOMEscan: CTK,[1],100
same,KINOMEscan: MAP3K3,[2],100
CCOc1cc(C(=O)N2CCC(N3CCN(C)CC3)CC2)ccc1Nc1ncc2c(n1)N(C1CCCC1)c1ccccc1C(=O)N2C [Compound 26],KINOMEscan: CTK,[1],89
same,KINOMEscan: MAP3K3,[2],100
COc1cc(C(=O)N2CCC(N3CCN(C)CC3)CC2)ccc1Nc1ncc2c(n1)N1CCc3cccc(c31)C(=O)N2C [Compound 24],KINOMEscan: MAP3K3,[2],98
COc1cc(C(=O)N2CCC(N3CCN(C)CC3)CC2)ccc1Nc1ncc2c(n1)N(C)c1ccccc1C(=O)N2C [15 (LRRK2-IN-1)],KINOMEscan: CTK,[1],100
same,KINOMEscan: MAP3K3,[2],97
